Laboratory results as given in patent publication US20260232851A1, “METHODS FOR THE DETECTION AND DIAGNOSIS OF CANCERS ASSOCIATED WITH OVEREXPRESSION OF PSMA RECEPTOR” (CLARITY PHARMACEUTICALS LIMITED, priority 2023, published 2026).
“Also recorded” adds a separate entry of the source.

Biological target: T1, PSMA receptor (Homo sapiens, UniProt Q04609)
T1 construct: localises at sites that overexpress the PSMA receptor and are indicative of a cancer; from tissue; host or cells: Primary prostate cancer and metastatic lesions (lymph node, bone, prostatic bed) in living patients
T1 sequence (Q04609 whole entry): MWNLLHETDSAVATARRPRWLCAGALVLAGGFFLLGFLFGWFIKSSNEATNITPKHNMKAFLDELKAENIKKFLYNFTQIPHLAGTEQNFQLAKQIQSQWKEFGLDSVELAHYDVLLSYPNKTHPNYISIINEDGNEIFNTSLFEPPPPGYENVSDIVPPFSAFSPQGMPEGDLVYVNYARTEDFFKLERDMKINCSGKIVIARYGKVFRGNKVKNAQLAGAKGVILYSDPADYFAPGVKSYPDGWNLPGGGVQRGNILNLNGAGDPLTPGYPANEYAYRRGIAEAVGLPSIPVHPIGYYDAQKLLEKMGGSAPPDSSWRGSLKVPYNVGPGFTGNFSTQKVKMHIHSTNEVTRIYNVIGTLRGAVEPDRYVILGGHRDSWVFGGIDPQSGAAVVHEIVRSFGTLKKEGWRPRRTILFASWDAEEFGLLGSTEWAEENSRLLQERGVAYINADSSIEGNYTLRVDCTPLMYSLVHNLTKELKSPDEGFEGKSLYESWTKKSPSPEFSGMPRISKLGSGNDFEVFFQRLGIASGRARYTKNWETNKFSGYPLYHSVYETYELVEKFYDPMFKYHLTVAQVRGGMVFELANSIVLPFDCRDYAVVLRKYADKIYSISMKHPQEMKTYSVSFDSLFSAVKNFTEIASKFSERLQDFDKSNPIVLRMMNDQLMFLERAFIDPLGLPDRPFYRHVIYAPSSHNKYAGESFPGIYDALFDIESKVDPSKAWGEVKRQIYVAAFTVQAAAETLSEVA
Assay: PET/CT lesion intensity (SUVmax, SUVmean, TTBR) in patients with untreated primary prostate cancer
Format: in vivo
Conditions: for SUVmax Median Difference / SUVmean Median Difference / TTBR Median Difference: ^64Cu vs ^68Ga; for Tumor to background ratio compared between ^64Cu-Sar-bisPSMA and ^68Ga-PSMA-11 (words): concordant lesions, FIG. 6; for Tumor to background ratio compared between ^64Cu-Sar-bisPSMA and ^68Ga-PSMA-11 (words) / SUVmean of lesions compared between ^64Cu-Sar-bisPSMA and ^68Ga-PSMA-11 (words) / SUVmax of lesions compared between ^64Cu-Sar-bisPSMA and ^68Ga-PSMA-11 (words): two readers; for SUVmean of lesions compared between ^64Cu-Sar-bisPSMA and ^68Ga-PSMA-11 (words) / SUVmax of lesions compared between ^64Cu-Sar-bisPSMA and ^68Ga-PSMA-11 (words): same subjects; for SUVmean of lesions compared between ^64Cu-Sar-bisPSMA and ^68Ga-PSMA-11 (words): FIG. 5; for SUVmax of lesions compared between ^64Cu-Sar-bisPSMA and ^68Ga-PSMA-11 (words): FIGS. 2, 4
Procedure: Patients with untreated, histopathology-proven, intermediate- to high-risk PC, planned for radical prostatectomy underwent ^68Ga-PSMA-11 PET/CT per institutional practice and were subsequently allocated to 1 out of 3 dose cohorts (1:1:3) to receive either 100 MBq, 150 MBq or 200 MBq of ^64Cu-SAR-bisPSMA, respectively. The specified dose of ^64Cu-Sar-bisPSMA was administered to each patient as a single bolus IV injection. […] PET/CT scans at other times after injection of the compound were acquired as required.
Patients were scanned using the standard clinical whole-body PET/CT acquisition protocol defined for each clinical site and in accordance with the Image Acquisition Manual, which contains details of scan acquisition, processing parameters and quality assurance procedures. The same scanner was used for each visit. Typical imaging acquisition parameters are below:
Two independent, blinded, central readers assessed the detection of primary PC on the 200 MBq ^64Cu-SAR-bisPSMA PET/CTs as the primary endpoint. To compare the intensity of lesions on ^68Ga-PSMA-11 and ^64Cu-SAR-bisPSMA PET, both readers determined the SUVs (SUVmax, SUVmean) and tumour-to-background ratio (ratio of lesion SUVmax and background SUVmean) in up to 5 concordant lesions between ^68Ga-PSMA-11 and ^64Cu-SAR-bisPSMA PET/CT as an exploratory endpoint.
Tables 1 and 2 below compare SUV parameters obtained from PET/CT images after administration of ^68Ga-PSMA-11 and a dose of 200 MBq of ^64Cu-SAR-bisPSMA from each reader.
Tables 3 and 4 below compare SUV parameters obtained from PET/CT images after administration of ^68Ga-PSMA-11 (200 MBq) and ^64Cu-SAR-bisPSMA (200 MBq) from each reader.

[1] = Table 1, first reader, 200 MBq ^64Cu-SAR-bisPSMA, N=17
[2] = Table 2, second reader, 200 MBq ^64Cu-SAR-bisPSMA, N=13

Sar-bisPSMA [^64Cu-SAR-bisPSMA]
SUVmax Max [1]: 100 | SUVmax Median [1]: 31.40 | SUVmax Min [1]: 8 | SUVmean Max [1]: 69.9 | SUVmean Mean [1]: 27.25 | SUVmean Median [1]: 21.76 | SUVmean Min [1]: 5.5 | TTBR (Tumour-to-Background Ratio) Mean [1]: 77.25 | TTBR Max [1]: 227.3 | TTBR Median [1]: 49.07 | TTBR Min [1]: 10.3 | SUVmax Median Difference (Table 1, first reader, N=17): 14.85 | SUVmean Median Difference (Table 1, first reader, N=17): 9.64 | TTBR Median Difference (Table 1, first reader, N=17): 27.15 | SUVmax Mean (Table 1, first reader, ^68Ga-PSMA-11 vs 200 MBq ^64Cu-SAR-bisPSMA PET/CT, concordant lesions averaged per participant, N=17): 40.28 | SUVmax Max [2]: 100 | SUVmax Median [2]: 41.00 | SUVmax Min [2]: 6.1 | SUVmean Max [2]: 69.9 | SUVmean Mean [2]: 31.78 | SUVmean Median [2]: 28.07 | SUVmean Min [2]: 4.4 | TTBR (Tumour-to-Background Ratio) Mean [2]: 86.40 | TTBR Max [2]: 212.8 | TTBR Median [2]: 76.34 | TTBR Min [2]: 6.7 | SUVmax Median Difference (Table 2, second reader, N=13): 27.03 | SUVmean Median Difference (Table 2, second reader, N=13): 18.44 | TTBR Median Difference (Table 2, second reader, N=13): 45.37 | SUVmax Mean (Table 2, second reader, ^68Ga-PSMA-11 vs 200 MBq ^64Cu-SAR-bisPSMA PET/CT, concordant lesions averaged per participant, N=13): 47.37 | SUVmax Max (Table 3, first reader, N=28): 100.00 | SUVmax Median (Table 3, first reader, N=28): 30.26 | SUVmax Min (Table 3, first reader, N=28): 8.00 | SUVmean Max (Table 3, first reader, N=28): 69.90 | SUVmean Mean (Table 3, first reader, N=28): 27.41 | SUVmean Median (Table 3, first reader, N=28): 21.20 | SUVmean Min (Table 3, first reader, N=28): 5.40 | TTBR (Tumour-to-Background Ratio) Mean (Table 3, first reader, N=28): 83.38 | TTBR Max (Table 3, first reader, N=28): 294.10 | TTBR Median (Table 3, first reader, N=28): 53.55 | TTBR Min (Table 3, first reader, N=28): 10.30 | SUVmax Median Difference (Table 3, first reader, N=28): 14.23 | SUVmean Median Difference (Table 3, first reader, N=28): 9.26 | TTBR Median Difference (Table 3, first reader, N=28): 27.94 | SUVmax Mean (Table 3, first reader, ^68Ga-PSMA-11 (200 MBq) vs ^64Cu-SAR-bisPSMA (200 MBq) PET/CT, lesions averaged per participant, N=28): 41.66 | SUVmax Max (Table 4, second reader, N=16): 100 | SUVmax Median (Table 4, second reader, N=16): 41.66 | SUVmax Min (Table 4, second reader, N=16): 6.1 | SUVmean Max (Table 4, second reader, N=16): 69.9 | SUVmean Mean (Table 4, second reader, N=16): 33.24 | SUVmean Median (Table 4, second reader, N=16): 28.4 | SUVmean Min (Table 4, second reader, N=16): 4.4 | TTBR (Tumour-to-Background Ratio) Mean (Table 4, second reader, N=16): 93.86 | TTBR Max (Table 4, second reader, N=16): 243.9 | TTBR Median (Table 4, second reader, N=16): 78.37 | TTBR Min (Table 4, second reader, N=16): 6.7 | SUVmax Median Difference (Table 4, second reader, N=16): 27.99 | SUVmean Median Difference (Table 4, second reader, N=16): 18.78 | TTBR Median Difference (Table 4, second reader, N=16): 46.93 | SUVmax Mean (Table 4, second reader, ^68Ga-PSMA-11 (200 MBq) vs ^64Cu-SAR-bisPSMA (200 MBq) PET/CT, lesions averaged per participant, N=16): 49.73 | Tumor to background ratio compared between ^64Cu-Sar-bisPSMA and ^68Ga-PSMA-11 (words) (listed as 64Cu-Sar-bisPSMA): higher | Tumor to background ratio compared between ^64Cu-Sar-bisPSMA and ^68Ga-PSMA-11 (words) (listed as 64Cu-SarbisPSMA): higher tumour to background ratio | SUVmean of lesions compared between ^64Cu-Sar-bisPSMA and ^68Ga-PSMA-11 (words): consistently higher | SUVmean of lesions compared between ^64Cu-Sar-bisPSMA and ^68Ga-PSMA-11 (words) (listed as 64Cu-Sar-bis-PSMA): higher SUVmean | SUVmean of lesions compared between ^64Cu-Sar-bisPSMA and ^68Ga-PSMA-11 (words) (listed as 64Cu-Sar-bisPSMA): greater | SUVmax of lesions compared between ^64Cu-Sar-bisPSMA and ^68Ga-PSMA-11 (words): consistently higher | SUVmax of lesions compared between ^64Cu-Sar-bisPSMA and ^68Ga-PSMA-11 (words) (listed as 64Cu-Sar-bisPSMA): higher SUVmax; also recorded: greater | SUVmax of lesions compared between ^64Cu-Sar-bisPSMA and ^68Ga-PSMA-11 (words) (listed as 64Cu-SarbisPSMA): higher SUVmax
